In patent US10281451B2, “Method of determining the viability of at least one cell” (The Regents of the University of Michigan, priority 2012, dated 2019):

System: EVPOME tissue-engineered constructs (primary human oral keratinocytes)
Assay: Quantitative histology scoring (H&E) of rapamycin-treated tissue-engineered constructs
Format: cell-based
From the text: A section was sliced across the construct, near the edge, fixed in 10% phosphate buffered formalin, and embedded in paraffin for hematoxylin and eosin (H&E) histology and immunohistochemistry (IHC). All the engineered tissues were sectioned for histological assessment and some for IHC imaging. Some engineered tissues were randomly selected for punch biopsies for WST-1 assay. The remaining intact constructs were non-invasively assessed with label-free optical imaging. For each construct, three sites were randomly selected for optical imaging. A tissue-engineered construct consists of three layers: keratin, living cellular, and dermal equivalent layer. Thus, for each site, one to two optical images were measured at lower and upper depths for the proliferating basal layer and the differentiating cellular layer respectively.
10 batches tissue-engineered constructs manufactured with cells from 10 independent patients were studied: 5 batches for the rapamycin experiment and 5 batches for the thermal-stress experiment. For the rapamycin experiment, 2 nM rapamycin was added in the medium at the cell culture stage for five days prior to tissue-stage culture and/or the tissue culture stage. Therefore, a total of four experimental conditions were created in the rapamycin experiment: • 1. Control+control: no rapamycin was added to the cultures during the two stages. • 2. Control+rapa: no rapamycin was added to the first cell culture stage medium; rapamycin was added to the second tissue culture stage medium. • 3. Rapa+control: rapamycin was added to the first cell culture stage medium; no rapamycin was added to the second tissue culture stage medium. • 4. Rapa+rapa: rapamycin was added to the medium used in both the culture stages.
All H&E histology slides were assessed by a panel of three blinded expert readers. Classification criteria were previously developed and detailed, where a viability score of 1 (least viable), 2, 3, 4, or 5 (most viable) was used. The classification criteria included the basal cell layer health, the construct cellular organization, and the keratin layer structural quality. The readers individually assigned a score to each EVPOME histology slide, while blinded to the construct condition and to the other readers' scores.
Quantitative histology scoring was performed to assess tissue morphology. Two groups of cultured cells were categorized: well-growing culture and poorly-growing culture. The well-growing and the poorly-growing cultures were defined by their control+control histology scores. A control+control score >3 is defined as well-growing. A control+control score <=3 is defined as poorly growing.

CO[C@H]1C[C@@H]2CC[C@@H](C)[C@@](O)(O2)C(=O)C(=O)N2CCCC[C@H]2C(=O)O[C@H]([C@H](C)C[C@@H]2CC[C@@H](O)[C@H](OC)C2)CC(=O)[C@H](C)/C=C(\C)[C@@H](O)[C@@H](OC)C(=O)[C@H](C)C[C@H](C)/C=C/C=C/C=C/1C [Rapamycin]
histology score (control+rapa construct (2 nM rapamycin in tissue culture stage only), poorly-growing culture, score 1 to 5): <= 3 | histology score (rapa+control construct (2 nM rapamycin in cell culture stage only), poorly-growing culture, score 1 (least viable) to 5 (most viable)): 4.7 | histology score (rapa+rapa construct (2 nM rapamycin in both culture stages), poorly-growing culture, score 1 to 5): <= 3 | histology score (well-growing culture, all four constructs incl. rapa+control, control+rapa, rapa+rapa, score 1 to 5): > 3
